# Peptide text beside a SMILES is read from it.
# Legend:
# HFF-1 cells [1] = assay type: cell-based, human; settings: 72 h
# Experimental: Immortalized human foreskin fibroblasts (HFF-1) were grown as a monolayer from passage number 8–16. For routine maintenance, HFF-1 cells were cultured in Dulbecco’s Modified Eagle Medium (DMEM, from Cell Lines Service) supplemented with 15% fetal bovine serum (FBS, from CLS) and 1% antibiotic/antimycotic solution (100 units/mL of penicillin, 100 μg/mL of streptomycin and 0.25 μg/mL of amphotericin B, from Sigma-Aldrich, St. Louis, MO, United States) at 37°C in an humidified atmosphere with 5% CO2. Cells were harvested by trypsinization [0.25% (w/v) trypsin-EDTA4Na, Sigma-Aldrich, St. Louis, MO, United States] twice a week.
# The cytotoxicity of synthetic peptides to HFF-1 cells was evaluated using the standard MTT assay. Briefly, cells were seeded at a density of 8 × 10^4 cells/well onto 96-well plate and incubated at 37°C in a 5% CO2 atmosphere. Cells were allowed to grow for 48 h, and serially diluted peptide solutions (0.78–100 μM) were added to the wells. Then, cells were incubated for 72 h at 37°C, after which wells were washed once with phosphate buffered saline (PBS, Sigma-Aldrich, St. Louis, MO, United States), followed by addition of a 0.45 mg/mL MTT solution to each well. Crystals were allowed to form for 1.5 h. Reaction was stopped by rejecting the medium and addition of dimethylsulfoxide (DMSO, Sigma-Aldrich, St. Louis, MO, United States). Absorbance was read at 570 nm (Biotek PowerWave XS).
# At the end of the cytotoxicity assays, the number of viable cells was never below that of initially plated cells. As such, data are represented as peptide concentrations causing 50% growth inhibition (IC50) on HFF-1 cells, rather than as lethal dosis values. IC50 values thus obtained are also included in Table 2.
# [2] = test system: preformed biofilms of MDR K. pneumoniae isolates; assay: Effect on 24 h preformed biofilms (OD600 of planktonic phase); assay type: cell-based, Klebsiella pneumoniae; settings: 20 × MIC, vs non-treated biofilm
# Experimental: The efficacy of peptide 3.1-PP4 on 24 h preformed biofilms of PA002, PA004, KP004, KP007, and KP010 was also evaluated ([Gomes et al., 2014]). Briefly, biofilms were grown in TSB from a starting inoculum of 1 × 10^6 CFU/mL in 96-well microtiter plates. […] The optical density at 600 nm (OD600) was measured at time 0 and after incubation for 24 h at 37°C. The reduction in the biofilm proliferation was calculated in comparison to the respective non-treated biofilms. Two independent experiments were performed in triplicate.
# In the case of control biofilms, the second 24 h growth period occurred in the absence of the peptide. Based on the apparent higher efficiency of peptide 3.1-PP4 to inhibit the formation of K. pneumoniae than P. aeruginosa biofilms, only two MDR isolates of the latter were included in this assay, whereas three MDR K. pneumoniae were tested. Optical density of the planktonic phase, as a measure of biofilm proliferation, was reduced in all peptide-treated biofilms, ranging from 3 to 21% reduction on P. aeruginosa isolates, and from 34 to 56% reduction on K. pneumoniae isolates (Table 4).
# [3] = test system: preformed biofilms of MDR K. pneumoniae isolates; assay: Biofilm metabolic activity (MTT); assay type: cell-based, Klebsiella pneumoniae; settings: 20 × MIC, 24 h at 37°C, absorbance 570 nm
# Experimental: The respective control biofilms were equally formed but in absence of the peptide (only TSB medium was used). Afterward, the bacterial metabolic activity of biofilms was quantified after adding 3-(4,5-dimethylthiazole-2-yl)-2,5-diphenyl tetrazolium bromide (MTT, 0.5 mg/mL – Sigma-Aldrich, St. Louis, MO, United States) for 3 h at 37°C in the dark. DMSO was used to dissolve the formazan crystals formed and the absorbance at 570 nm was measured. Two independent experiments were performed in four replicates.
# The influence of the peptide on the metabolic activity of preformed biofilms of one P. aeruginosa (PA004) and three K. pneumoniae (KP004, KP007, and KP010) isolates was also assessed, through a standard MTT assay.
# HFF-1 cells [4] = assay: Collagen production, Picrosirius Red staining; assay type: cell-based, human; settings: HFF-1, 72 h incubation, Sirius Red, absorbance 540 nm; concentrations representative of the MIC values; compared with C16-PP4
# Experimental: Collagen production was assessed as described by [Remoué et al. (2013)]. Briefly, HFF-1 cells were seeded and incubated as described previously for the cytotoxicity assay. After the 72 h incubation with peptides, cells were washed with PBS and the Sirius Red dye in picric acid solution (Sigma-Aldrich, St. Louis, MO, United States) was applied to each well. Cells were incubated at 25°C for 1 h under orbital shaking. Dye was then rejected, and cells were washed twice with absolute ethanol (AGA). Once the wells were dry, 1 M aqueous NaOH (Sigma-Aldrich, St. Louis, MO, United States) was added, and absorbance read at 540 nm (Biotek PowerWave XS).
# The CBP-AMP conjugates herein addressed include a collagenesis-inducing motif, the amino acid sequence KTTKS whose N-palmitoylated derivative is the well-known “Palmitoyl pentapeptide-4” (C16-PP4) that emerged in 2000 under the commercial name Matrixyl as an active ingredient in skin rejuvenating cosmetics. […] To this end, collagen produced by HFF-1 human fibroblasts was determined by the previously validated Picrosirius Red Staining Protocol ([Remoué et al., 2013]), taking C16-PP4 as reference CBP. […] Results are presented in Figure 3, and expressed as the ratio between collagen produced and the number of viable cells, as the test peptides had different cytotoxicity against the HFF-1 cell line. […]
# [5] = isolate KP004, 24 h preformed biofilm
# [6] = isolate KP007, 24 h preformed biofilm
# [7] = isolate KP010, 24 h preformed biofilm
compound,measurement,setting,value
CC(C)C[C@H](NC(=O)[C@H](Cc1c[nH]c2ccccc12)NC(=O)[C@H](CCCCN)NC(=O)[C@H](CC(C)C)NC(=O)[C@H](CC(C)C)NC(=O)[C@H](CCCCN)NC(=O)[C@@H](N)CCCCN)C(=O)N[C@@H](CC(C)C)C(=O)N[C@@H](CCCCN)C(=O)N[C@@H](CC(C)C)C(=O)N[C@@H](CC(C)C)C(=O)N[C@@H](CCCCN)C(=O)N[C@H](C(=O)N[C@H](C(=O)N[C@@H](CCCCN)C(=O)N[C@@H](CO)C(N)=O)[C@@H](C)O)[C@@H](C)O [Peptide 3.1-PP4] (H-KKLLKWLLKLLKTTKS-NH2; N-terminus assumed),IC50,HFF-1 cells [1],69 ± 5 µM
same,% reduction in biofilm proliferation upon treatment,[2]; [5],56%
same,% reduction in biofilm proliferation upon treatment,[2]; [6],34%
same,% reduction in biofilm proliferation upon treatment,[2]; [7],49%
same,% reduction of metabolic activity in peptide-treated biofilms,[3]; [5],79%
same,% reduction of metabolic activity in peptide-treated biofilms,[3]; [6],40%
same,% reduction of metabolic activity in peptide-treated biofilms,[3]; [7],77%
same,collagenesis-inducing behavior (collagen produced / number of viable cells),HFF-1 cells [4],not statistically different from that of Matrixyl (C16-PP4)
